The experiment has as its system mono-methyl arginine in RKO cells. In words: RKO Methylation Assay, In Cell Western for mono-methyl arginine and DNA content. The class given is cell-based. As to conditions: Homo sapiens, 72 hours, percent activation of mono-methyl arginine signal. From the text: RKO Methylation Assay RKO adherent cells were purchased from ATCC (American Type Culture Collection), Manassas, Va., USA. DMEM/Glutamax medium, penicillin-streptomycin, heat inactivated fetal bovine serum, 0.05% trypsin and D-PBS were purchased from Life Technologies, Grand Island, N.Y., USA. Odyssey blocking buffer, 800CW goat anti-rabbit IgG (H+L) antibody, and Licor Odyssey infrared scanner were purchased from Licor Biosciences, Lincoln, Nebr., USA. Mono-methyl arginine antibody was purchased from Cell Signaling Technology, Danvers, Mass., USA. Methanol was purchased from VWR, Franklin, Mass., USA. 10% Tween 20 was purchased from KPL, Inc., Gaithersburg, Md., USA. DRAQ5 was purchased from Biostatus Limited, Leicestershire, UK. RKO adherent cells were maintained in growth medium (DMEM/Glutamax medium supplemented with 10% v/v heat inactivated fetal bovine serum and 100 units/mL penicillin-streptomycin) and cultured at 37° C. under 5% CO2. Cell Treatment, in Cell Western (ICW) for Detection of Mono-Methyl Arginine and DNA Content. RKO cells were seeded in assay medium at a concentration of 20,000 cells per mL to a poly-D-lysine coated 384 well culture plate (BD Biosciences 356697) with 50 μL per well. Compound (100 nL) from a 96-well source plate was added directly to 384 well cell plate. Plates were incubated at 37° C., 5% CO2 for 72 hours. After three days of incubation, plates were brought to room temperature outside of the incubator for ten minutes and blotted on paper towels to remove cell media. 50 μL of ice cold 100% methanol was added directly to each well and incubated for 30 min at room temperature. After 30 min, plates were transferred to a Biotek EL406 plate washer and washed 2 times with 100 μL per well of wash buffer (IX PBS). Next 60 μL per well of Odyssey blocking buffer (Odyssey Buffer with 0.1% Tween 20 (v/v)) were added to each plate and incubated 1 hour at room temperature. Blocking buffer was removed and 20 μL per well of primary antibody was added (mono-methyl arginine diluted 1:200 in Odyssey buffer with 0.1% Tween 20 (v/v)) and plates were incubated overnight (16 hours) at 4° C. Plates were washed 5 times with 100 μL per well of wash buffer. Next 20 μL per well of secondary antibody was added (1:200 800CW goat anti-rabbit IgG (H+L) antibody, 1:1000 DRAQ5 (Biostatus limited) in Odyssey buffer with 0.1% Tween 20 (v/v)) and incubated for 1 hour at room temperature. The plates were washed 5 times with 100 μL per well wash buffer then 2 times with 100 μL per well of water. Plates were allowed to dry at room temperature then imaged on the Licor Odyssey machine which measures integrated intensity at 700 nm and 800 nm wavelengths. Both 700 and 800 channels were scanned. Calculations: First, the ratio for each well was determined by: Each plate included fourteen control wells of DMSO only treatment (minimum activation) as well as fourteen control wells for maximum activation treated with 20 μM of a reference compound. The average of the ratio values for each control type was calculated and used to determine the percent activation for each test well in the plate. Reference compound was serially diluted three-fold in DMSO for a total of nine test concentrations, beginning at 20 μM. Percent activation was determined and EC30 curves were generated using triplicate wells per concentration of compound.

Structures are written as SMILES. Some results are limits rather than exact numbers.

Compound `CN(CCN)Cc1c[nH]nc1-c1cncnc1` [Compound 4] had an EC30 not below 12 µM. The compound `CN(CCN)Cc1c[nH]nc1-c1cnn(C)c1` [Compound 8] gave an EC30 not below 12 µM. Compound `CN(CCN)Cc1c[nH]nc1-c1ccc2scnc2c1` [Compound 9] displayed an EC30 of 3.01 to 12 µM. For `CN(CCN)Cc1c[nH]nc1-c1cn[nH]c1` [Compound 12], the EC30 is not below 12 µM. The value for `CN(CCN)Cc1c[nH]nc1-c1cnc2[nH]ccc2c1` [Compound 13] was 3.01 to 12 µM; that for `CN(CCN)Cc1c[nH]nc1-c1cc[nH]n1` [Compound 14] was not below 12 µM; that for `CN(CCN)Cc1c[nH]nc1-c1ccnn1C` [Compound 15] was not below 12 µM. Compound `CCn1cc(-c2n[nH]cc2CN(C)CCN)cn1` [Compound 16] yielded a concentration for an effect of 30% (EC30) not below 12 µM. Compound `CN(CCN)Cc1c[nH]nc1-c1cnn(-c2ccccc2)c1` [Compound 17] gave an EC30 not above 3 µM. To `CN(CCN)Cc1c[nH]nc1-c1cnn(CCO)c1` [Compound 18] belongs not below 12 µM; to `CN(CCN)Cc1c[nH]nc1-c1ccc2cnn(C)c2c1` [Compound 19, N^1-methyl-N^1-((3-(1-methyl-1H-indazol-6-yl)-1H-pyrazol-4-yl)methyl)ethane-1,2-diamine], 3.01 to 12 µM. To `CN(CCN)Cc1c[nH]nc1-c1ccc2ncnn2c1` [Compound 20] belongs not below 12 µM; to `CN(CCN)Cc1c[nH]nc1-c1ccc2nccn2c1` [Compound 21, N^1-((3-(imidazo[1,2-a]pyridin-6-yl)-1H-pyrazol-4-yl)methyl)-N^1-methylethane-1,2-diamine], 3.01 to 12 µM; to `CC(C)n1cc(-c2n[nH]cc2CN(C)CCN)cn1` [Compound 22], 3.01 to 12 µM. To `CC(C)Cn1cc(-c2n[nH]cc2CN(C)CCN)cn1` [Compound 23, N^1-((2′-isobutyl-3,4′-bi(1H-pyrazol)-4-yl)methyl)-N^1-methylethane-1,2-diamine] belongs not above 3 µM.

Turning to `CN(CCN)Cc1c[nH]nc1-c1cnn(Cc2ccccc2)c1` [Compound 24, N^1-((1′-benzyl-3,4′-bi(1H-pyrazol)-4-yl)methyl)-N^1-methylethane-1,2-diamine], the EC30 is not above 3 µM. The value for `Cc1n[nH]c(C)c1-c1n[nH]cc1CN(C)CCN` [Compound 25] was not below 12 µM; that for `CN(CCN)Cc1c[nH]nc1-c1ccc2[nH]ncc2c1` [Compound 27, N^1-((3-(1H-indazol-5-yl)-1H-pyrazol-4-yl)methyl)-N^1-methylethane-1,2-diamine] was not above 3 µM.

With `CN(CCN)Cc1c[nH]nc1-c1cnc(C2CC2)nc1` [Compound 28], the EC30 was not below 12 µM.
